One assay relates to Mycobacterium tuberculosis. Nature of the assay: Inhibition of Mycobacterium tuberculosis chorismate mutase expressed in Escherichia coli BL21 (DE3) assessed as conversion of chorismate to prephenate at 50 uM after 5 mins.
Take `Cc1ccc(S(=O)(=O)Nc2ccccc2-c2cc3ccccc3n2S(=O)(=O)c2ccc(C)cc2)cc1`: the inhibition (in general, the relative decrease from the control value, in per cent) was determined as 12%. In the case of `Cc1ccc(S(=O)(=O)Nc2ccc(F)cc2-c2cc3cc(F)ccc3n2S(=O)(=O)c2ccc(C)cc2)cc1`, the inhibition was 15%.

In the case of `Cc1ccc(NS(C)(=O)=O)c(-c2cc3cc(C)ccc3n2S(C)(=O)=O)c1`, the inhibition was determined as 42%.

As to `CS(=O)(=O)Nc1ccc([N+](=O)[O-])cc1-c1cc2cc([N+](=O)[O-])ccc2n1S(C)(=O)=O`, the inhibition was 15%. Turning to `CS(=O)(=O)Nc1ccc(Cl)cc1-c1cc2cc(Cl)ccc2n1S(C)(=O)=O`, the inhibition amounted to 45%. Turning to `CS(=O)(=O)Nc1ccc(C#N)cc1-c1cc2cc(C#N)ccc2n1S(C)(=O)=O`, the inhibition worked out at 20%.

For the molecule `Cc1ccc(S(=O)(=O)Nc2ccc(Cl)cc2-c2cc3cc(Cl)ccc3n2S(=O)(=O)c2ccc(C)cc2)cc1`, the inhibition worked out at 10%. Same read-out and setting: the result for `Cc1ccc(S(=O)(=O)Nc2ccc(C(F)(F)F)cc2-c2cc3cc(C(F)(F)F)ccc3n2S(=O)(=O)c2ccc(C)cc2)cc1` reads 12%. For `CS(=O)(=O)Nc1ccccc1-c1cc2ccccc2n1S(C)(=O)=O`, the inhibition was 40%. The same measure, in the same setting: then `CS(=O)(=O)Nc1ccc(F)cc1-c1cc2cc(F)ccc2n1S(C)(=O)=O`, with 69%; and `CS(=O)(=O)Nc1ccc(C(F)(F)F)cc1-c1cc2cc(C(F)(F)F)ccc2n1S(C)(=O)=O`, with 25%.

As to `CC(=O)c1ccc(NS(C)(=O)=O)c(-c2cc3cc(C(C)=O)ccc3n2S(C)(=O)=O)c1`, the inhibition was 30%.

Regarding `Cc1ccc(S(=O)(=O)Nc2ccc(C)cc2-c2cc3cc(C)ccc3n2S(=O)(=O)c2ccc(C)cc2)cc1`, the inhibition came to 15%.

Regarding `COc1ccc(NS(C)(=O)=O)c(-c2cc3cc(OC)ccc3n2S(C)(=O)=O)c1`, the inhibition was found to be 50%.

Tested on in a further assay: not listed separately
Nature of the assay: (§1) Inhibition of Mycobacterium tuberculosis chorismate mutase expressed in Escherichia coli BL21 (DE3) assessed as conversion of chorismate to prephenate after 5 mins.
For `COc1ccc(CCNc2c([N+](=O)[O-])cc(C(=O)O)cc2S(N)(=O)=O)cc1OC`, the IC50 (commonly the concentration that inhibits the measured activity by half) was less than 10 µM. The same measure, in the same setting: then `CS(=O)(=O)Nc1ccc(F)cc1-c1cc2cc(F)ccc2n1S(C)(=O)=O`, with 17 µM.

A further assay relates to Mycobacterium tuberculosis. The description is as §1.
`CS(=O)(=O)Nc1ccc(F)cc1-c1cc2cc(F)ccc2n1S(C)(=O)=O`: the inhibition result is “Dose-dependent effect”.

The values above are taken from ChEMBL document CHEMBL3217686, “A new route to indoles via in situ desilylationSonogashira strategy: identification of novel small molecules as potential anti-tuberculosis agents” (Medchemcomm, 2011).
